Laboratory results: ChEMBL document CHEMBL1137440, “Kinesin spindle protein (KSP) inhibitors. Part 6: Design and synthesis of 3,5-diaryl-4,5-dihydropyrazole amides as potent inhibitors of the mitotic kinesin KSP” (Bioorg Med Chem Lett, 2007)
Calls of active or inactive are those of the source. The rule behind the calls is not given here.

Experiments:
[1] = species: Canis familiaris; experiment: Induction of drug-induced QTc prolongation in dog cardiovascular model at 40 uM; assay type: functional, organism-based; conditions: Canis lupus familiaris, Heart
[2] = tested on: A2780; experiment: Mitotic arrest in A2780 cells bearing mouse at 3 mg/kg after 22 hrs by phospho-Histone immunohistochemistry assay; assay type: functional, organism-based; design: dose 3 mg/kg
[3] = tested on: Plasma; experiment: Drug level in A2780 cell bearing mouse plasma at 3 mg/kg, po; assay type: functional, organism-based; design: dose 3 mg/kg
[4] = tested on: Plasma; experiment: Drug level in A2780 cells bearing mouse plasma, po; assay type: functional
[5] = tested on: Plasma; experiment: Protein binding in mouse plasma; assay type: functional, cell-free
[6] = species: Canis familiaris; experiment: Induction of drug-induced QTc prolongation in dog cardiovascular model at less than 10 uM; assay type: functional, organism-based; conditions: Canis lupus familiaris; Heart
[7] = tested on: Plasma; experiment: Protein binding in human plasma; assay type: functional, cell-free

PPB [5] | PPB [7] | Compound | Activity [1] | Activity [2] | Cp [3] | Cp [4] | Activity [6]
– | – | CC(=O)N1N=C(c2cc(F)ccc2F)C[C@@]1(C[C@H](F)CN)c1ccccc1 | inactive | Active | 38 nM | – | –
92% | 91% | CC(=O)N1CCN(CCC[C@@]2(c3ccccc3)CC(c3cc(F)ccc3F)=NN2C(C)=O)CC1 | – | – | – | 56 nM | Active
